This note sets out measurements from ChEMBL document CHEMBL1151280, “ent-Kaurane Diterpenoids from Isodon albopilosus” (J Nat Prod, 2005).

In the assay the test system is HepG2. Kind of assay: Cytotoxicity against human HepG2 cells after 24 hrs by Alamar blue assay. It is filed as functional, cell-based. The note with it: for IC50: HepG2, 24 h. Background: The colour change of resazurin is a common sign of viable cells or microbes.

In the case of `C=C1C(=O)[C@@]23[C@H](O)C[C@H]4[C@@](C)(CCC[C@]4(C)C(=O)O)[C@@H]2CC[C@@H]1[C@H]3O`, the Activity result is “Not toxic”.

As for `C=C1C[C@@]23[C@H](O)C[C@@H]4[C@@](C)(CO)CCC[C@@]4(C)[C@@H]2C[C@H](O)[C@@H]1[C@H]3O`, the Activity entry is “Not toxic”.

Turning to `C=C1C(=O)[C@@]23[C@H](O)C[C@@H]4[C@@](C)(COC(C)=O)CCC[C@@]4(C)[C@@H]2C[C@H](O)[C@@H]1[C@H]3O` [ALBOPILOSIN A], half-maximal inhibition (IC50) required 24.9 µM. That is a double-digit micromolar value.

For `C=C1[C@H]2[C@@H](O)[C@@]3([C@H](O)C[C@H]4[C@@](C)(CCC[C@]4(C)C=O)[C@@H]3C[C@@H]2O)[C@@H]1OC(C)=O`, the Activity result is “Not toxic”.

`CC(=O)OC[C@@]1(C)CCC[C@]2(C)[C@@H]1C[C@@H](O)[C@@]13C(=O)[C@H](CO)[C@@H]([C@H]1O)[C@@H](O)C[C@@H]23`: the Activity result is “Not toxic”.

Turning to `C=C1[C@@H](OC(C)=O)[C@@]23[C@H](O)C[C@@H]4[C@@](C)(CO)CCC[C@@]4(C)[C@@H]2CC[C@@H]1[C@H]3O`, the Activity result was “Not toxic”.

For `C=C1C(=O)[C@@]23[C@H](O)C[C@H]4[C@@](C)(CCC[C@]4(C)C(=O)O)[C@@H]2C[C@H](O)[C@@H]1[C@H]3O`, the Activity result was “Not toxic”.

As for `C=C1C(=O)[C@@]23[C@H](O)C[C@H]4[C@@](C)(CCC[C@]4(C)C=O)[C@@H]2CC[C@@H]1[C@H]3O` [ALBOPILOSIN H], the IC50 (in general, the concentration that gives 50% inhibition) worked out at 13.3 µM.

The compound `C=C1C(=O)[C@@]23[C@H](O)C[C@H]4[C@@](C)(CCC[C@]4(C)C=O)[C@@H]2C[C@H](O)[C@@H]1[C@H]3O` [MACROCALYXIN C] gave a concentration for half-maximal inhibition (IC50) of 30.8 µM.

For `C[C@H]1C(=O)[C@@]23[C@H](O)C[C@H]4[C@@](C)(CCC[C@]4(C)C(=O)O)[C@@H]2C[C@H](O)[C@@H]1[C@H]3O`, the Activity result was “Not toxic”.

Consider `C=C1[C@H]2[C@@H](O)[C@@]3([C@H](O)C[C@@H]4[C@@](C)(CO)CCC[C@@]4(C)[C@@H]3C[C@@H]2O)[C@@H]1OC(C)=O`, for which the Activity entry is “Not toxic”.

Compound `C=C1C(=O)[C@@]23[C@H](O)C[C@@H]4[C@@](C)(CO)CCC[C@@]4(C)[C@@H]2CC[C@@H]1[C@H]3O` [EXCISANIN C] yielded an IC50 of 13.2 µM.

`C=C1C(=O)[C@@]23[C@H](O)C[C@@H]4[C@@](C)(CO)CCC[C@@]4(C)[C@@H]2C[C@H](O)[C@@H]1[C@H]3O` [RABDOKUNMIN C] gave an IC50 of 42.1 µM.

With `C[C@H]1C(=O)[C@@]23[C@H](O)C[C@@H]4[C@@](C)(CO[C@@H]5O[C@H](CO)[C@@H](O)[C@H](O)[C@H]5O)CCC[C@@]4(C)[C@@H]2C[C@H](O)[C@@H]1[C@H]3O`, the Activity entry is “Not toxic”.

In the case of `C[C@@H]1[C@@H]2C(=O)C[C@H]3[C@]4(C)CCC[C@](C)(CO)[C@H]4C[C@@H](O)[C@@]3([C@@H]1O)[C@@H]2O`, the Activity result is “Not toxic”.
